Assay: Solubility in orally acceptable oils and aqueous systems
Type: physicochemical
Settings: in conventional, orally acceptable oils, such as safflower or sesame seed oils, and in aqueous systems

**Q.** For `Cc1ccc(F)cc1C(=O)Nc1ccc(C(=O)N2Cc3cccn3Cc3ccccc32)c(Cl)c1` [VPA-985, N-[4-(5H-pyrrolo[2,1-c][1,4]benzodiazepin-10(11H)ylcarbonyl)-3-chlorophenyl]-5-fluoro-2-methylbenzamide], which solubility is on record?
**A.** Its solubility is “highly insoluble”.

From patent US6352718B1, “Vasopressin antagonist formulation and process” (American Cyanamid Company, priority 1999, dated 2002)
